Results: PMC9549809, “In vivo behavior of [^64Cu]NOTA-terpyridine platinum, a novel chemo-radio-theranostic agent for imaging, and therapy of colorectal cancer” (Frontiers in Medicine, 2022)
Like-named read-outs stand apart in the source and are kept apart here.

Columns and labels:
[1] = tested on: HCT116 cells; set-up: method as in PMID 34578470; details: cited from earlier work
[2] = tested on: tumor; set-up: method as in PMID 24337603; details: cited from earlier work
[3] = tested on: plasma protein; details: 24 h; cited from earlier work
[4] = tested on: HCT116 tumor; details: cited from earlier work
[5] = tested on: HCT116 tumor; test: Oxaliplatin in the same HCT116 mouse model (previous study); format: in vivo, nude mice

Row | SMILES | nuclear accumulation relative to ^64Cu-NOTA-C3-TP [1] | tumor uptake ([2]; 15 min post-injection) | tumor uptake ([2]; 2 h post-injection) | tumor uptake ([2]; 16 h) | bound to plasma protein [3] | quantity measured in the tumor ([4]; 10 mg/kg (25 nmol/g mouse), 48 h post-injection) | quantity in tumor as % of the injected dose ([4]; 10 mg/kg, 48 h post-injection) | concentration in the tumor ([4]; 48 h post-injection) | EF, oxaliplatin plus 15 Gy external beam vs oxaliplatin alone (TGD) ([4]; same mouse model, irradiated 48 h post-injection) | times more platinum drug in the tumor than with [^64Cu]NOTA-C3-TP ([5]; 48 h) | plasma concentration, times higher than [^64Cu]NOTA-C3-TP ([5]; 48 h post-injection, injected dose 1,250 times higher)
1 | CC(=O)[O-].CC(=O)[O-].[64Cu+2] [^64Cu(OAc)2] | significantly lower | 1.28 ± 0.13 %ID/g | 2.76 ± 0.63 %ID/g | 1.28 ± 0.07 %ID/g | – | – | – | – | – | – | –
2 | O=C1[O][Pt]2([NH][C@@H]3CCCC[C@H]3[NH]2)[O]C1=O [oxaliplatin] | – | – | – | – | 98% | 0.3 nmol/g | 1.2% | 0.12 μg/g of tumor | 5.18 | 333 times | about 6 times
